Test results as given in patent publication US20220023273A1, “METHODS FOR TREATING SYMPTOMS AND DISORDERS ASSOCIATED WITH LYSOSOMAL STORAGE DISEASES” (GENZYME CORPORATION, priority 2019, published 2022).
“And” between values parts separate entries of the source, which are not always exact repeats. Identical values can stand only once. Like-named read-outs stand apart in the source and are kept apart here.

Assays:
Format in all cases: in vivo, human
[1] = GD3 clinical study: pharmacokinetics in plasma and CSF; settings: for AUC: human, plasma, po, Day 1 (N = 5), read-out: AUC0_24 (mean ± SD)
Text: Patients 18 years of age or older with a clinical diagnosis of GD3 and documented deficiency of acid beta-glucosidase activity having received treatment with ERT for at least 3 years and with imiglucerase (Cerezyme) at a stable monthly dose for at least 6 months prior to enrollment were included in the study. Patients must have reached the following GD therapeutic goals: hemoglobin level of ≥11.0 g/dL for females and ≥12.0 g/dL for males; platelet count ≥100 000/mm3; spleen volume <10 multiples of normal (MN), or total splenectomy (provided the splenectomy occurred >3 years prior to randomization); liver volume <1.5 MN; and no bone crisis and free of symptomatic bone disease such as bone pain attributable to osteonecrosis and/or pathological fractures within the last year. Patients must have GD3 featuring oculomotor apraxia (supranuclear gaze palsy) characterized by a horizontal saccade abnormality.
(§1) During the study patients were evaluated for safety and tolerability, CSF and plasma biomarkers (glucosylceramide, GL-1; glucosylsphingosine, lyso-GL1), pharmacokinetics, markers for systemic disease (spleen and liver volume measured by magnetic resonance imaging (MRI), platelet count, hemoglobin levels), indicia of interstitial lung disease (high resolution pulmonary computed tomography (CT)), and horizontal saccadic eye movement.
A second interim analysis was performed when the first 6 patients had reached 52-weeks of treatment, as described above in section (A). This analysis included Patients 1-5 as described in section (A), as well as new Patient 6. All six patients had L444P (1448T/C) homozygous Gaucher phenotype.

[2] = system: adult patients with Gaucher disease Type 3; experiment: GD3 clinical study: horizontal and vertical saccadic eye movements; settings: GD3, 15 mg/day oral + imiglucerase
Description: as §1
Quantification of horizontal and vertical saccadic eye movements (HSEM and VSEM, respectively) was performed in all 5 patients. In the five patients, mean peak velocity (PV) of horizontal rightward 150 saccades was 50.8°/s (+/−8.1°/s) at baseline and […] (+/−12.6°/s) at Week 26: and the mean PV of horizontal leftward 150 saccades was 44.7°/s (+/−17.9°/s) at baseline and 32.3°/s (+/−15.9°/s) at Week 26. […]
At 52 weeks, quantification of horizontal and vertical saccadic eye movements was performed in all six patients in a similar manner as described in section (A). However, it was determined that the methodology used to account for noise (e.g., caused by blinking or head movements) may have introduced bias into the results. The method of accounting for noise was therefore modified, and a set of control criteria were developed to assess validity of the datasets obtained by the eye movement reader.

[3] = system: adult patients with Gaucher disease Type 3; experiment: GD3 clinical study: trail making test (TMT); settings: GD3, 15 mg/day oral + imiglucerase
Text: The trail making test (TMT) was used to evaluate cognitive function in the patients. The TMT is one of the most widely used neuropsychological tests and is included in most test batteries. The TMT is a diagnostic tool to assess general intelligence and cognitive dysfunctions (Tombaugh et al. [2004]; Cavaco et al. [2013]). In part A of the TMT, subjects are asked to connect a cluster of numbers in ascending order. This task is a combination of visual search and general visual and motor processing speed. Part B presents a sequence which alternates between numbers and letters. Subjects must actively switch between both categories when connecting them in ascending, but alternating order.
TMT-A evaluates mainly perceptual and psychomotor speed. TMT-B assesses more specifically mental flexibility and shifting abilities. TMT B minus TMT A score is used to remove the variance attributable to the graphomotor and visual scanning components of TMT A. This derived score reflects the unique task requirements of TMT B.

[4] = GD3 clinical study: safety and tolerability; settings: GD3, 15 mg/day oral + imiglucerase
Description: as §1

[5] = Phase 1 Study 1 Part 1: ascending single-dose pharmacokinetics; settings: healthy men, fasted
Text: Study 1 was a 2-part single-center trial in healthy adult male volunteers.
Part 1 of the study enrolled and randomized 55 healthy men (placebo, n=14; 2-, 5-, 15, 25-, 50, and 100-mg doses, n=6 each; 150-mg dose, n=5). Eight healthy men participated in Part 2.
After a 7-day washout period, participants were crossed over to the other condition.

[6] = Phase 1 studies: safety profile
Description: In all studies, safety profile was assessed by monitoring treatment-emergent adverse events (TEAEs) through 10 days after last dose of study medication, including serious adverse events [SAEs]), ECG monitoring, laboratory values, and physical examinations.

plasma GL-3 = experiment: Fabry: matched comparison with historical phase 3 trial of agalsidase beta; settings: Fabry males, 15 mg/day oral
Text: Mean ages were similar across the three groups.

[7] = healthy volunteers, all Phase 1 studies

## CC(C)(NC(=O)O[C@@H]1CN2CCC1CC2)c1csc(-c2ccc(F)cc2)n1 [Compound 2, (S)-quinuclidin-3-yl (2-(2-(4-fluorophenyl)thiazol-4-yl)propan-2-yl)carbamate]
[1]; Day 1 (N = 6), GD3, 15 mg/day oral + imiglucerase
  Compound 2 in CSF, concentration 2-4 hours post dose (mean): <LLOQ
[1]; GD3, 15 mg/day oral + imiglucerase
  time at which steady state concentration is reached in plasma and CSF: ≤ 4 Week
[1]; Week 26, believed due to compliance or dosing errors
  Patient 5: lower concentrations of Compound 2 in plasma and CSF: about 50%
[1]; Week 52, believed due to compliance or dosing errors
  Patient 5: concentrations of Compound 2 in plasma and CSF: undetectable
[1]; all patients, GD3, 15 mg/day oral + imiglucerase
  crossing of the blood-brain barrier: effectively cross the blood-brain barrier
[1]; 26-week interim, GD3, 15 mg/day oral + imiglucerase
  AUC: 715 ± 225 ng·h/mL
[1]; 52-week interim, GD3, 15 mg/day oral + imiglucerase
  AUC: 729 ± 205 ng·h/mL
[2]; between baseline and week 26
  VSEM measurements: stable
[2]; over the 26-week treatment period
  changes in HSEM: no clinically meaningful changes
[3]; Week 52, individual patients 1-6
  TMT-A-TMT-B: 20 s
[3]; Week 52
  patients with a TMT-A reduction, excluding Patient 5: four of five
  patients with a TMT-B reduction, excluding Patient 5: five of five
  patients with a reduction in the (TMT B-TMT A) time: 5 of 6
  patients with an improvement in Trail B minus Trial A, excluding Patient 5: four of five
  patients with reduction in time taken to complete Trail A: Four of six
  patients with reduction in time taken to complete Trail B: six of six
[3]; individual patients 1-6
  TMT-A-TMT-B, Change (%) from Baseline to Week 52: −72% and −43%
[4]; 26 weeks, all 5 patients
  treatment-emergent adverse events: no serious or lasting treatment-emergent adverse events
[4]; 52 weeks, six patients
  total treatment-emergent adverse events reported: 30
[4]; 52 weeks, six patients, none considered related to treatment
  severity of treatment-emergent adverse events: mild or moderate in severity
[5]; single oral 2 mg
  CL/F, Geometric mean: 6.3 L/h
[5]; single oral 5 mg
  CL/F, Geometric mean: 5.8 L/h
[5]; single oral 15 mg
  CL/F, Geometric mean: 5.6 L/h
[5]; single oral 25 mg
  CL/F, Geometric mean: 5.0 L/h
[5]; single oral 50 mg
  CL/F, Geometric mean: 5.5 L/h
[5]; single oral 100 mg
  CL/F, Geometric mean: 5.3 L/h
[5]; single oral 150 mg
  CL/F, Geometric mean: 5.6 L/h
  CL/F, Mean: 5.80 L/h
[6]; [7]
  Vital signs: no relevant changes from baseline
  deaths, SAEs, severe TEAEs, discontinuations: no deaths, SAEs, severe TEAEs, or TEAEs leading to study discontinuation
  hematologic or biochemical abnormalities: No clinically relevant hematologic or biochemical abnormalities
[6]; single ascending dose and food effect studies
  ECG parameters: no relevant changes
Plasma GL-3; 26 weeks, matched comparison to placebo (−1.06 μg/mL, P<0.0001)
  reduction in plasma GL-3: -3.62 µg/mL
Plasma GL-3; 104 weeks (p=0.0351) and 156 weeks (p=0.0081)
  plasma GL-3 reduction compared to agalsidase beta: significantly greater
